This is an account of results in US5164296A, “Assay methods involving ouabain” (priority 1990, dated 1992).

In general, Hill coefficient refers to a measure of the steepness of the concentration-response curve.

The test system of assay [1] is antibodies having binding specificity for ouabain. The experiment in a line: Competition ELISA for binding to antibodies having binding specificity for ouabain. The arrangement: species or system rabbit. The method, then: The competition for binding to antibodies having binding specificity for ouabain was carried out by employing polyclonal antisera having titers >10,000 generated against ouabain in rabbits as described in Example 2 below. […] A competition ELISA was carried out as follows:
Microtiter plates were coated with 50 μl of a 1.0 ng/ml solution of Conjugate 4. Following washes with wash buffer comprising 0.9% (w/v) NaCl and 0.5% (v/v) Tween 20 (hereinafter "wash buffer"), residual sites were blocked with buffer comprising 136 mM NaCl, 1.46 mM KH2 PO4, 0.8 mM Na2 HPO4, 0.028 mM thimerosal, 0.5% (v/v) Tween 20, and 1.0% (w/v) BSA (pH 7.4). Known amounts of free ouabain or unknown samples were introduced followed by the addition of ouabain antisera at an overall dilution of 1:2×10^6. Incubations at 23° C. for 1 hr were terminated by repeated washing with wash buffer. Subsequently, a second incubation at […] for 1hr was performed with a 1:10^3 dilution of goat anti-rabbit IgG-peroxidase conjugate (Boehringer Mannheim, Indianapolis, Ind.). Following extensive washing with wash buffer, equal parts of 3, 3', 5, 5'-tetramethylbenzindine and hydrogen peroxide (Kirkegaard and Perry, Gaitheresburg, Md.) were added and incubated at 23° C. for 15 min. Color development was terminated by addition of 1.0 M H3 PO4 and read at 450 nm with a plate reader. […] Each data point is the mean ± S.E.M. All lines were fitted by nonlinear regression to a sigmoidal function.
For orientation: ELISA stands for enzyme-linked immunosorbent assay.

The subject of assay [2] is rings of aorta from guinea pigs. The experiment in a line: Vasoactive properties in rings of aorta from guinea pigs. The arrangement: species or system guinea pig. The method, then:
The aortic rings were incubated at 37° C. in phosphate buffered saline. The rings were submaximally contracted for 3 to 7 min, every 35 min, with 0.2 or 1.0 μM histamine. […] The apparent half-time for washout of the augmented tension response in the presence of plant ouabain was also much greater than 60 min.

On to `CC1OC(OC2CC(O)C3(CO)C4C(O)CC5(C)C(C6=CC(=O)OC6)CCC5(O)C4CCC3(O)C2)C(O)C(O)C1O` (stereo not drawn) [human ouabain], for which the Hill coefficient in assay [1] (competition ELISA) is -0.65. For the same compound, the Kd in assay [1] (competition ELISA, antisera 1:2×10^6, read-out: calculated apparent Kd value) is 1.6 nM. Moreover, the “cross-reaction with antibodies having binding specificity for ouabain” value in assay [1] (within experimental error) is given as 100%. In assay [2] (170 nM human ouabain, 200 nM plant ouabain), the “effect on baseline tension” value is on record as “no effect”. For the same compound, in assay [2] (Cavia porcellus, 0.5 h, read-out: histamine-evoked tension, % of control), the activity at 0.17 µM came out at 150 ± 14%. Further, the “apparent half-time for washout of the augmented tension response” value in assay [2] (upon washout) was “greater than 60 min”.
